Our source for the IC50 values is patent publication US7238706B2, “4-oxo-1-(3-substituted phenyl-1,4-dihydro-1,8-naphthyridine-3-carboxamide phosphodiesterase-4 inhibitors” (Merck Frosst Canada, Ltd., priority 2002, dated 2007).

The test system of this assay is TNF-α. The experiment in a line: LPS-induced TNF-α assay in human whole blood. The class given is cell-based. To be noted: LPS 1 μg/mL, 24 hours at 37° C., TNF-α by ELISA in plasma. As to the method:
Whole blood provides a protein and cell-rich milieu appropriate for the study of biochemical efficacy of anti-inflammatory compounds such as PDE4-selective inhibitors. […] Upon stimulation with LPS, activated monocytes express and secrete TNF-α up to 8 hours and plasma levels remain stable for 24 hours. Published studies have shown that inhibition of TNF-α by increasing intracellular cAMP via PDE4 inhibition and/or enhanced adenylyl cyclase activity Occurs at the transcriptional level. […] As there is little LTB4 produced during a 24 hour LPS stimulation of whole blood, an additional LPS stimulation followed by fMLP challenge of human whole blood is necessary for LTB4 synthesis by activated neutrophils. Thus, by using the same blood sample, it is possible to evaluate the potency of a compound on two surrogate markers of PDE4 activity in the whole blood by the following procedure.
Fresh blood was collected in heparinized tubes by venipuncture from healthy human volunteers (male and female). These subjects had no apparent inflammatory conditions and had not taken any NSAIDs for at least 4 days prior to blood collection. 500 μL aliquots of blood were pre-incubated with either 2 μL of vehicle (DMSO) or 2 μL of test compound at varying concentrations for 15 minutes at 37° C. This was followed by the addition of either 10 μL vehicle (PBS) as blanks or 10 μL LPS (1 μg/mL final concentration, #L-2630 (Sigma Chemical Co., St. Louis, Mo.) from E. coli, serotype 0111:B4; diluted in 0.1% w/v BSA (in PBS)). After 24 hours of incubation at 37° C., another 10 μL of PBS (blank) or 10 μL of LPS (1 μg/mL final concentration) was added to blood and incubated for 30 minutes at 37° C. The blood was then challenged with either 10 μL of PBS (blank) or 10 μL of fMLP (1 μM final concentration, #F-3506 (Sigma); diluted in 1% w/v BSA (in PBS)) for 15 minutes at 37° C. The blood samples were centrifuged at 1500×g for 10 minutes at 4° C. to obtain plasma. A 50 μL aliquot of plasma was mixed with 200 μL methanol for protein precipitation and centrifuged as above. The supernatant was assayed for LTB4 using an enzyme immunoassay kit (#520111 from Cayman Chemical Co., Ann Arbor, Mich.) according to the manufacturer's procedure. TNF-α was assayed in diluted plasma (in PBS) using an ELISA kit (Cistron Biotechnology, Pine Brook, N.J.) according to manufacturer's procedure.
A general note: In an ELISA, binding on a coated surface is turned into a signal by an enzyme label.

Broadly, the IC50 is the concentration at which inhibition is half-maximal. Lower therefore signals greater potency. `O=C(NC1CC1)c1cn(-c2cccc(-c3ccc([C@@H]4C[C@H]4C(=O)O)cc3)c2)c2ncccc2c1=O` (relative stereo) [Example 1, 2-(trans)-{3′-[3-[(Cyclopropylamino)carbonyl]-4-oxo-1,8-naphthyridin-1(4H)-yl]-1,1′-biphenyl-4-yl}cyclopropanecarboxylic acid] had an IC50 of 300 nM. That is a sub-micromolar value.

Take `O=C(NC1CC1)c1cn(-c2cccc(-c3ccc([C@H]4C[C@H]4C(=O)O)cc3)c2)c2ncccc2c1=O` (single isomer, unassigned; isomer 2) [8-(−)-isomer, 2-(cis)-{3′-[3-[(Cyclopropylamino)carbonyl]-4-oxo-1,8-naphthyridin-1(4H)-yl]-1,1′-biphenyl-4-yl}cyclopropanecarboxylic acid]: the IC50 was 160 nM. Compared with the last compound, the IC50 is about 1.9-fold lower.

For the compound `O=C(NC1CC1)c1cn(-c2cccc(-c3ccc(CC4(C(=O)O)CCC4)cc3)c2)c2ncccc2c1=O` [Example 30, 1-({3′-[3-[(cyclopropylamino)carbonyl]-4-oxo-1,8-naphthyridin-1(4H)-yl]biphenyl-4-yl}methyl)cyclobutanecarboxylic acid], the IC50 was determined as 1800 nM.

Turning to `O=C(NC1CC1)c1cn(-c2cccc(-c3ccc(C4CC4C(=O)O)c(Cl)c3)c2)c2ncccc2c1=O` (stereo not shown) [Example 17, 2-{3-Chloro-3′-[3-[(cyclopropylamino)carbonyl]-4-oxo-1,8-naphthyridin-1(4H)-yl]1,1′-biphenyl-4-yl}cyclopropanecarboxylic acid], half-maximal inhibition (IC50) required 90 nM.

Compound `O=C(NC1CC1)c1cn(-c2cccc(-c3cccc(C4CC4C(=O)O)c3)c2)c2ncccc2c1=O` (stereo not shown) [Example 2, 2-{3′-[3-[(Cyclopropylamino)carbonyl]-4-oxo-1,8-naphthyridin-1(4H)-yl]-1,1′-biphenyl-3-yl}cyclopropanecarboxylic acid] showed an IC50 of 100 nM.

Regarding `O=C(NCC1CC1)c1cn(-c2cccc(-c3ccc(C4CC4C(=O)O)cc3)c2)c2ncccc2c1=O` (stereo not shown) [Example 26, 2-{3′-[3-{[(Cyclopropylmethyl)amino]carbonyl}-4-oxo-1,8-naphthyridin-1(4H)-yl]-1,1′-biphenyl-4-yl}cyclopropanecarboxylic acid], the IC50 stood at 160 nM.

For the compound `O=C(NC1CC1)c1cn(-c2cccc(-c3ccc(C4CC4C(=O)O)c(F)c3)c2)c2ncccc2c1=O` (single isomer, unassigned; (-)) [12-(−)-isomer, (−)-(trans)-2-{3′-[3-[(cyclopropylamino)carbonyl]-4-oxo-1,8-naphthyridin-1(4H)-yl]-3-fluoro-1,1′-biphenyl-4-yl}cyclopropanecarboxylic acid], the midpoint of inhibition, the IC50, lay at 500 nM. This IC50 is about 3.1-fold higher than that of the compound before.

With `CC(C)(CC(=O)O)c1ccc(-c2cccc(-n3cc(C(=O)NC4CC4)c(=O)c4cccnc43)c2)cc1` [Example 5, 3-{3′-[3-[(Cyclopropylamino)carbonyl]-4-oxo-1,8-naphthyridin-1(4H)-yl]-1,1′-biphenyl-4-yl}-3-methylbutanoic acid], the IC50 came out at 75 nM.

`O=C(NCC(F)(F)F)c1cn(-c2cccc(-c3ccc(C4CC4C(=O)O)c(F)c3)c2)c2ncccc2c1=O` (single isomer, unassigned; (+)) [Example 29, (+)-(trans)-2-{3-fluoro-3′-[4-oxo-3-{[(2,2,2-trifluoroethyl)amino]carbonyl}-1,8-naphthyridin-1(4H)-yl]biphenyl-4-yl}cyclopropanecarboxylic acid]: the 50% inhibitory concentration (IC50) came out at 100 nM.

`O=C(NCC(F)(F)F)c1cn(-c2cccc(-c3ccc([C@@H]4C[C@H]4C(=O)O)cc3)c2)c2ncccc2c1=O` (single isomer, unassigned; (+)) [24-(+)-isomer, (+)-(trans)-2-{3′-[4-oxo-3-{[(2,2,2-trifluoroethyl)amino]carbonyl}-1,8-naphthyridin-1(4H)-yl]biphenyl-4-yl}cyclopropanecarboxylic acid] gave an IC50 of 160 nM. This IC50 lies about 1.6-fold higher than the previous one.
